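GI50: concentration for 50% inhibition of growth. Definition used: TGI = concentration required for complete inhibition of growth.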
Assays:
Assay in all cases: NCI-60 cell line screen, 384-well format
786-0 renal = tested on: 786-0 renal
A498 renal = tested on: A498 renal
A549 NSCLC = tested on: A549 NSCLC
ACHN renal = tested on: ACHN renal
BT-549 breast = tested on: BT-549 breast
CAKI-1 renal = tested on: CAKI-1 renal
COLO 205 colon = tested on: COLO 205 colon
DU-145 prostate = tested on: DU-145 prostate
EKVX NSCLC = tested on: EKVX NSCLC
HCC-2998 colon = tested on: HCC-2998 colon
HCT-116 colon = tested on: HCT-116 colon
HCT-15 colon = tested on: HCT-15 colon
HL-60(TB) leukemia = tested on: HL-60(TB) leukemia
HOP-62 NSCLC = tested on: HOP-62 NSCLC
HOP-92 NSCLC = tested on: HOP-92 NSCLC
HS 578T breast = tested on: HS 578T breast
HT29 colon = tested on: HT29 colon
IGROV1 ovarian = tested on: IGROV1 ovarian
KM12 colon = tested on: KM12 colon
LOX IMVI melanoma = tested on: LOX IMVI melanoma
M14 melanoma = tested on: M14 melanoma
MALME-3M melanoma = tested on: MALME-3M melanoma
MCF7 breast = tested on: MCF7 breast
MDA-MB-231 breast = tested on: MDA-MB-231 breast
MDA-MB-435 melanoma = tested on: MDA-MB-435 melanoma
MDA-MB-468 breast = tested on: MDA-MB-468 breast
MOLT-4 leukemia = tested on: MOLT-4 leukemia
NCI-H226 lung = tested on: NCI-H226 lung
NCI-H23 lung = tested on: NCI-H23 lung
NCI-H322M lung = tested on: NCI-H322M lung
NCI-H460 NSCLC = tested on: NCI-H460 NSCLC
NCI-H522 lung = tested on: NCI-H522 lung
NCI/ADR-RES ovarian = tested on: NCI/ADR-RES ovarian
OVCAR-3 ovarian = tested on: OVCAR-3 ovarian
OVCAR-4 ovarian = tested on: OVCAR-4 ovarian
OVCAR-5 ovarian = tested on: OVCAR-5 ovarian
OVCAR-8 ovarian = tested on: OVCAR-8 ovarian
PC-3 prostate = tested on: PC-3 prostate
RPMI-8226 leukemia = tested on: RPMI-8226 leukemia
RXF 393 renal = tested on: RXF 393 renal
SF-268 CNS = tested on: SF-268 CNS
SF-295 CNS = tested on: SF-295 CNS
SF-539 CNS = tested on: SF-539 CNS
SK-MEL-28 melanoma = tested on: SK-MEL-28 melanoma
SK-MEL-5 melanoma = tested on: SK-MEL-5 melanoma
SK-OV-3 ovarian = tested on: SK-OV-3 ovarian
SN12C renal = tested on: SN12C renal
SNB-19 CNS = tested on: SNB-19 CNS
SNB-75 CNS = tested on: SNB-75 CNS
SR leukemia = tested on: SR leukemia
SW-620 colon = tested on: SW-620 colon
T-47D breast = tested on: T-47D breast
TK-10 renal = tested on: TK-10 renal
U251 glioblastoma = tested on: U251 glioblastoma
UACC-257 melanoma = tested on: UACC-257 melanoma
UACC-62 melanoma = tested on: UACC-62 melanoma
UO-31 renal = tested on: UO-31 renal

Q: Which GI50 (786-0 renal) does the source give for `COC(=O)C[C@](O)(CCCC(C)(C)O)C(=O)O[C@@H]1C(OC)=C[C@]23CCCN2CCc2cc4c(cc2[C@H]13)OCO4` here?
A: 26 nM

Q: What about the TGI (786-0 renal) of the same compound?
A: 147 nM

Q: What about the GI50 (A498 renal) of the same compound?
A: 19 nM

Q: And the TGI (A498 renal)?
A: 44.9 nM

Q: And the GI50 (A549 NSCLC)?
A: 18 nM

Q: And the TGI (A549 NSCLC)?
A: 115 nM

Q: And the GI50 (ACHN renal)?
A: 43.2 nM

Q: And the TGI (ACHN renal)?
A: 304 nM

Q: And the GI50 (BT-549 breast)?
A: 17.1 nM

Q: And the TGI (BT-549 breast)?
A: 34.8 nM

Q: And the GI50 (CAKI-1 renal)?
A: 42.4 nM

Q: What about the TGI (CAKI-1 renal) of the same compound?
A: 266 nM

Q: What about the GI50 (COLO 205 colon) of the same compound?
A: 25.9 nM

Q: What about the TGI (COLO 205 colon) of the same compound?
A: 120 nM

Q: And the GI50 (DU-145 prostate)?
A: 29.9 nM

Q: And the TGI (DU-145 prostate)?
A: 85 nM

Q: What about the GI50 (EKVX NSCLC) of the same compound?
A: 36.5 nM

Q: And the TGI (EKVX NSCLC)?
A: 201 nM

Q: What about the GI50 (HCC-2998 colon) of the same compound?
A: < 10 nM

Q: What about the TGI (HCC-2998 colon) of the same compound?
A: 25.3 nM

Q: And the GI50 (HCT-116 colon)?
A: < 10 nM

Q: And the TGI (HCT-116 colon)?
A: 88.7 nM

Q: And the GI50 (HCT-15 colon)?
A: 47.7 nM

Q: And the TGI (HCT-15 colon)?
A: 233 nM

Q: What about the GI50 (HL-60(TB) leukemia) of the same compound?
A: < 10 nM

Q: And the TGI (HL-60(TB) leukemia)?
A: < 10 nM

Q: And the GI50 (HOP-62 NSCLC)?
A: 26.3 nM

Q: And the TGI (HOP-62 NSCLC)?
A: 134 nM

Q: And the GI50 (HOP-92 NSCLC)?
A: 37.9 nM

Q: And the TGI (HOP-92 NSCLC)?
A: 102 nM

Q: What about the GI50 (HS 578T breast) of the same compound?
A: 18 nM

Q: And the TGI (HS 578T breast)?
A: 34.6 nM

Q: What about the GI50 (HT29 colon) of the same compound?
A: 21.4 nM

Q: And the TGI (HT29 colon)?
A: 66.3 nM

Q: What about the GI50 (IGROV1 ovarian) of the same compound?
A: 24 nM

Q: And the TGI (IGROV1 ovarian)?
A: 115 nM

Q: And the GI50 (KM12 colon)?
A: 27.5 nM

Q: What about the TGI (KM12 colon) of the same compound?
A: 183 nM

Q: What about the GI50 (LOX IMVI melanoma) of the same compound?
A: < 10 nM

Q: What about the TGI (LOX IMVI melanoma) of the same compound?
A: 21.9 nM

Q: And the GI50 (M14 melanoma)?
A: 20.3 nM

Q: What about the TGI (M14 melanoma) of the same compound?
A: 41.6 nM

Q: And the GI50 (MALME-3M melanoma)?
A: 15 nM

Q: And the TGI (MALME-3M melanoma)?
A: 33.2 nM

Q: What about the GI50 (MCF7 breast) of the same compound?
A: < 10 nM

Q: And the TGI (MCF7 breast)?
A: 1450 nM

Q: What about the GI50 (MDA-MB-231 breast) of the same compound?
A: 31.6 nM

Q: And the TGI (MDA-MB-231 breast)?
A: 105 nM

Q: And the GI50 (MDA-MB-435 melanoma)?
A: 43.4 nM

Q: And the TGI (MDA-MB-435 melanoma)?
A: 130 nM

Q: And the GI50 (MDA-MB-468 breast)?
A: < 10 nM

Q: And the TGI (MDA-MB-468 breast)?
A: 19.9 nM

Q: What about the GI50 (MOLT-4 leukemia) of the same compound?
A: < 10 nM

Q: What about the TGI (MOLT-4 leukemia) of the same compound?
A: < 10 nM

Q: What about the GI50 (NCI-H226 lung) of the same compound?
A: 11.9 nM

Q: And the TGI (NCI-H226 lung)?
A: 38 nM

Q: What about the GI50 (NCI-H23 lung) of the same compound?
A: 17.6 nM

Q: And the TGI (NCI-H23 lung)?
A: 36.9 nM

Q: What about the GI50 (NCI-H322M lung) of the same compound?
A: 84.4 nM

Q: And the TGI (NCI-H322M lung)?
A: 287 nM

Q: What about the GI50 (NCI-H460 NSCLC) of the same compound?
A: < 10 nM

Q: What about the TGI (NCI-H460 NSCLC) of the same compound?
A: 17 nM

Q: And the GI50 (NCI-H522 lung)?
A: < 10 nM

Q: What about the TGI (NCI-H522 lung) of the same compound?
A: 17.3 nM

Q: And the GI50 (NCI/ADR-RES ovarian)?
A: 1780 nM

Q: And the TGI (NCI/ADR-RES ovarian)?
A: 7740 nM

Q: And the GI50 (OVCAR-3 ovarian)?
A: 13.8 nM

Q: And the TGI (OVCAR-3 ovarian)?
A: 41.1 nM

Q: What about the GI50 (OVCAR-4 ovarian) of the same compound?
A: 26.5 nM

Q: What about the TGI (OVCAR-4 ovarian) of the same compound?
A: 72.1 nM

Q: And the GI50 (OVCAR-5 ovarian)?
A: 48.9 nM

Q: What about the TGI (OVCAR-5 ovarian) of the same compound?
A: 806 nM

Q: What about the GI50 (OVCAR-8 ovarian) of the same compound?
A: 25.9 nM

Q: And the TGI (OVCAR-8 ovarian)?
A: 66.8 nM

Q: What about the GI50 (PC-3 prostate) of the same compound?
A: 26 nM

Q: And the TGI (PC-3 prostate)?
A: 139 nM

Q: What about the GI50 (RPMI-8226 leukemia) of the same compound?
A: < 10 nM

Q: And the TGI (RPMI-8226 leukemia)?
A: 15.5 nM

Q: What about the GI50 (RXF 393 renal) of the same compound?
A: 17.4 nM

Q: And the TGI (RXF 393 renal)?
A: 47.9 nM

Q: What about the GI50 (SF-268 CNS) of the same compound?
A: 31.1 nM

Q: What about the TGI (SF-268 CNS) of the same compound?
A: 85.2 nM

Q: What about the GI50 (SF-295 CNS) of the same compound?
A: 26 nM

Q: What about the TGI (SF-295 CNS) of the same compound?
A: 55.9 nM

Q: And the GI50 (SF-539 CNS)?
A: 17.2 nM

Q: And the TGI (SF-539 CNS)?
A: 33.3 nM

Q: What about the GI50 (SK-MEL-28 melanoma) of the same compound?
A: 25.7 nM

Q: And the TGI (SK-MEL-28 melanoma)?
A: 62.5 nM

Q: What about the GI50 (SK-MEL-5 melanoma) of the same compound?
A: 13 nM

Q: What about the TGI (SK-MEL-5 melanoma) of the same compound?
A: 36.6 nM

Q: And the GI50 (SK-OV-3 ovarian)?
A: 26 nM

Q: What about the TGI (SK-OV-3 ovarian) of the same compound?
A: 172 nM

Q: What about the GI50 (SN12C renal) of the same compound?
A: 40.4 nM

Q: And the TGI (SN12C renal)?
A: 267 nM

Q: And the GI50 (SNB-19 CNS)?
A: 29.8 nM

Q: What about the TGI (SNB-19 CNS) of the same compound?
A: > 100000 nM

Q: What about the GI50 (SNB-75 CNS) of the same compound?
A: 32.1 nM

Q: And the TGI (SNB-75 CNS)?
A: 78.9 nM

Q: And the GI50 (SR leukemia)?
A: < 10 nM

Q: And the TGI (SR leukemia)?
A: < 10 nM

Q: What about the GI50 (SW-620 colon) of the same compound?
A: 30.4 nM

Q: And the TGI (SW-620 colon)?
A: 183 nM

Q: What about the GI50 (T-47D breast) of the same compound?
A: 27.5 nM

Q: What about the TGI (T-47D breast) of the same compound?
A: 187 nM

Q: And the GI50 (TK-10 renal)?
A: 48.7 nM

Q: What about the TGI (TK-10 renal) of the same compound?
A: 894 nM

Q: And the GI50 (U251 glioblastoma)?
A: 21.4 nM

Q: And the TGI (U251 glioblastoma)?
A: 66.9 nM

Q: What about the GI50 (UACC-257 melanoma) of the same compound?
A: 26.5 nM

Q: What about the TGI (UACC-257 melanoma) of the same compound?
A: 65.6 nM

Q: What about the GI50 (UACC-62 melanoma) of the same compound?
A: 31.8 nM

Q: What about the TGI (UACC-62 melanoma) of the same compound?
A: 107 nM

Q: And the GI50 (UO-31 renal)?
A: 295 nM

Q: What about the TGI (UO-31 renal) of the same compound?
A: 1090 nM
